From ChEMBL document CHEMBL1126231, “Synthesis and phototoxicity of a series of haematoporphyrin analogues” (1992)

Experiments:
[1] = In vivo localization capacities at 24 hr post injection in a mouse C6 intracerebral glioma model and the tumor; normal brain ratio was calculated; assay type: functional
[2] = In vivo localization capacities at 6 hr post injection in a mouse C6 intracerebral glioma model and the tumor; normal brain ratio was calculated; assay type: functional

CCOCCOC(C)C1=C(C)c2cc3[nH]c(cc4[nH]c(cc5nc(cc1n2)C(C)=C5C(C)OCCOCC)c(C)c4CCC(=O)O)c(CCC(=O)O)c3C (stereo not given)
Ratio [1]: 25.1
Ratio [2]: 37.7

CCOC(C)C1=C(C)c2cc3[nH]c(cc4[nH]c(cc5nc(cc1n2)C(C)=C5C(C)OCC)c(C)c4CCC(=O)O)c(CCC(=O)O)c3C (stereo not given)
Ratio [1]: 8.7
Ratio [2]: 17.5

CCOC(C)C1=C(C)c2cc3[nH]c(cc4[nH]c(cc5nc(cc1n2)C(C)=C5C(C)OCC)c(C)c4CCC(=O)NCCN(C)C)c(CCC(=O)NCCN(C)C)c3C (stereo not given)
Ratio [1]: 6.4
Ratio [2]: 2.4

CCOCCOC(C)C1=C(C)c2cc3[nH]c(cc4[nH]c(cc5nc(cc1n2)C(C)=C5C(C)OCCOCC)c(C)c4CCC(=O)NCCN(C)C)c(CCC(=O)NCCN(C)C)c3C (stereo not given)
Ratio [1]: 8
Ratio [2]: 15.2

CC1=C(C(C)SCC(=O)O)c2cc3nc(cc4[nH]c(cc5[nH]c(cc1n2)c(C)c5CCC(=O)O)c(CCC(=O)O)c4C)C(C(C)SCC(=O)O)=C3C (stereo not given)
Ratio [1]: 28.2
Ratio [2]: 23
